Laboratory results reported in ChEMBL document CHEMBL6083269, “Design, synthesis, in vitro and in vivo trypanosomaticidal efficacy of novel 5-nitroindolylazines” (Eur J Med Chem, 2024).

Columns and labels:
[1] = Cytotoxicity against green monkey Vero cells incubated for 48 hrs by resazurin dye based assay; assay type: toxicity, cell-based; conditions: African green monkey (Chlorocebus sabaeus)
[2] = Cytotoxicity against human […]-differentiated THP-1 cells incubated for 72 hrs by resazurin dye based assay; assay type: toxicity, cell-based
Leishmania donovani [3] = assay: Antileishmanial activity against Leishmania donovani 9515 (MHOM/IN/95/9151) promastigote incubated for 48 hrs by resazurin dye based plate reader assay; assay type: functional, organism-based
[4] = Selectivity index, ratio of IC50 for african green monkey Vero cells to IC50 for Leishmania donovani 9515 (MHOM/IN/95/9151) promastigote; assay type: toxicity, cell-based; conditions: read-out: Ratio IC50
[5] = Selectivity index, ratio of IC50 for human THP-1 cells to IC50 for Leishmania donovani 9515 (MHOM/IN/95/9151) promastigote; assay type: toxicity, cell-based; conditions: read-out: Ratio IC50
Leishmania donovani [6] = assay: Antileishmanial activity against Leishmania donovani 9515 (MHOM/IN/95/9151) amastigote infected in THP-1 cells assessed as inhibition of parasite growth incubated for 72 hrs by resazurin dye based plate reader assay; assay type: functional, organism-based; conditions: THP-1, 72 h
[7] = Selectivity index, ratio of IC50 for african green monkey Vero cells to IC50 for static antileishmanial activity against Leishmania donovani 9515 (MHOM/IN/95/9151) amastigote; assay type: toxicity, cell-based; conditions: read-out: Ratio IC50
[8] = Selectivity index, ratio of IC50 for human THP-1 cells to IC50 for static antileishmanial activity against Leishmania donovani 9515 (MHOM/IN/95/9151) amastigote; assay type: toxicity, cell-based; conditions: read-out: Ratio IC50
Leishmania donovani [9] = assay: Leishmanicidal activity against Leishmania donovani 9515 (MHOM/IN/95/9151) amastigote infected in THP-1 cells incubated for 72 hrs by resazurin dye based plate reader assay; assay type: functional, organism-based; conditions: THP-1, 72 h
[10] = Selectivity index, ratio of IC50 for african green monkey Vero cells to IC50 for leishmanicidal activity against Leishmania donovani 9515 (MHOM/IN/95/9151) amastigote; assay type: toxicity, cell-based; conditions: read-out: Ratio IC50
[11] = Selectivity index, ratio of IC50 for human THP-1 cells to IC50 for leishmanicidal activity against Leishmania donovani 9515 (MHOM/IN/95/9151) amastigote; assay type: toxicity, cell-based; conditions: read-out: Ratio IC50
[12] = Cytotoxicity against MDBK cells incubated for 72 hrs by CCK8 assay; assay type: toxicity, cell-based, Bos taurus; conditions: cattle; for CC50 at 72 h: MDBK cells
[13] = test system: Trypanosoma brucei gambiense; assay: Trypanocidal activity against Trypanosoma brucei gambiense IL1922 incubated for 72 hrs by CellTiter-Glo reagent based […] analysis; assay type: functional, organism-based; conditions: IL1922, 72 h
[14] = test system: Trypanosoma brucei rhodesiense; assay: Trypanocidal activity against Trypanosoma brucei rhodesiense IL1501 incubated for 72 hrs by CellTiter-Glo reagent based […] analysis; assay type: functional, organism-based; conditions: IL1501, 72 h
[15] = test system: Trypanosoma brucei brucei; assay: Trypanocidal activity against Trypanosoma brucei brucei GUTat3.1 incubated for 72 hrs by CellTiter-Glo reagent based […] analysis; assay type: functional, organism-based; conditions: GUTat3.1, 72 h
Trypanosoma congolense = assay: Trypanocidal activity against Trypanosoma congolense IL3000 incubated for 72 hrs by CellTiter-Glo reagent based […] analysis; assay type: functional, organism-based; conditions: IL3000, 72 h
Trypanosoma evansi = assay: Trypanocidal activity against Trypanosoma evansi Tansui incubated for 72 hrs by CellTiter-Glo reagent based […] analysis; assay type: functional, organism-based
Trypanosoma equiperdum = assay: Trypanocidal activity against Trypanosoma equiperdum IVM-t1 incubated for 72 hrs by CellTiter-Glo reagent based […] analysis; assay type: functional, organism-based; conditions: IVM-t1, 72 h
[16] = Selectivity index, ratio of CC50 for MDBK to IC50 for Trypanosoma brucei gambiense IL1922; assay type: toxicity, cell-based; conditions: cattle, MDBK cells; read-out: Ratio CC50/IC50
[17] = Selectivity index, ratio of CC50 for MDBK to IC50 for Trypanosoma brucei rhodesiense IL1501; assay type: toxicity, cell-based; conditions: cattle, MDBK cells; read-out: Ratio CC50/IC50
[18] = Selectivity index, ratio of CC50 for MDBK to IC50 for Trypanosoma brucei brucei GUTat3.1; assay type: toxicity, cell-based; conditions: cattle, MDBK cells; read-out: Ratio CC50/IC50
[19] = Selectivity index, ratio of CC50 for MDBK to IC50 for Trypanosoma congolense IL3000; assay type: toxicity, cell-based; conditions: cattle, MDBK cells; read-out: Ratio CC50/IC50
[20] = Selectivity index, ratio of CC50 for MDBK to IC50 for Trypanosoma evansi Tansui; assay type: toxicity, cell-based; conditions: cattle, MDBK cells; read-out: Ratio CC50/IC50
[21] = Selectivity index, ratio of CC50 for MDBK to IC50 for Trypanosoma equiperdum IVM-t1; assay type: toxicity, cell-based; conditions: cattle, MDBK cells; read-out: Ratio CC50/IC50

Compound: C#CCn1cc(/C=N/N=C\C=C(C)C)c2cc([N+](=O)[O-])ccc21
- IC50 at 48 h [1]: 80.3 µM
- IC50 at 72 h [2]: 92.6 µM
- IC50 (Leishmania donovani [3]): 10 µM
- selectivity ratio [4]: 8
- selectivity ratio [5]: 9
- IC50 (Leishmania donovani [6]): 0.53 µM
- selectivity ratio [7]: 152
- selectivity ratio [8]: 175
- IC50 (Leishmania donovani [9]): 1.03 µM
- selectivity ratio [10]: 78
- selectivity ratio [11]: 90
- CC50 ([12]; mdbk, 72 h): > 325 µM
- IC50 [13]: 33.4 µM
- IC50 [14]: 34.7 µM
- IC50 [15]: 37.4 µM
- IC50 (Trypanosoma congolense): 28.3 µM
- IC50 (Trypanosoma evansi): 39.6 µM
- IC50 (Trypanosoma equiperdum): 27 µM
- selectivity ratio [16]: 2.04
- selectivity ratio [17]: 1.96
- selectivity ratio [18]: 1.82
- selectivity ratio [19]: 2.41
- selectivity ratio [20]: 1.72
- selectivity ratio [21]: 2.53

Compound: C#CCn1cc(/C=N\N=C/CC)c2cc([N+](=O)[O-])ccc21
- IC50 at 48 h [1]: > 100 µM
- IC50 at 72 h [2]: > 100 µM
- IC50 (Leishmania donovani [3]): > 10 µM
- IC50 (Leishmania donovani [6]): > 10 µM
- IC50 (Leishmania donovani [9]): > 10 µM
- CC50 at 72 h [12]: > 354 µM
- IC50 [13]: 51.6 µM
- IC50 [14]: 75.1 µM
- IC50 [15]: 78.8 µM
- IC50 (Trypanosoma congolense): > 88.6 µM
- IC50 (Trypanosoma evansi): 55.4 µM
- IC50 (Trypanosoma equiperdum): 56.1 µM
- selectivity ratio [16]: > 6.86
- selectivity ratio [17]: > 4.72
- selectivity ratio [18]: > 4.49
- selectivity ratio [20]: > 6.39
- selectivity ratio [21]: > 6.3

Compound: C#CCn1cc(/C=N\N=C\c2cccs2)c2cc([N+](=O)[O-])ccc21
- IC50 at 48 h [1]: 10.8 µM
- IC50 at 72 h [2]: 16.6 µM
- IC50 (Leishmania donovani [3]): 7.02 µM
- selectivity ratio [4]: 2
- selectivity ratio [5]: 2
- IC50 (Leishmania donovani [6]): 0.89 µM
- selectivity ratio [7]: 12
- selectivity ratio [8]: 16
- IC50 (Leishmania donovani [9]): 0.67 µM
- selectivity ratio [10]: 16
- selectivity ratio [11]: 25
- CC50 at 72 h [12]: > 297 µM
- IC50 [13]: 14.7 µM
- IC50 [14]: 16.3 µM
- IC50 [15]: 21.4 µM
- IC50 (Trypanosoma congolense): 3.94 µM
- IC50 (Trypanosoma evansi): 18.5 µM
- IC50 (Trypanosoma equiperdum): 18.4 µM
- selectivity ratio [16]: 20.2
- selectivity ratio [17]: 18.3
- selectivity ratio [18]: > 13.9
- selectivity ratio [19]: > 75.4
- selectivity ratio [20]: > 16.1
- selectivity ratio [21]: > 16.2

Compound: C#CCn1cc(/C=N\N=C\c2cccnc2)c2cc([N+](=O)[O-])ccc21
- IC50 at 48 h [1]: > 100 µM
- IC50 at 72 h [2]: > 100 µM
- IC50 (Leishmania donovani [3]): > 10 µM
- IC50 (Leishmania donovani [6]): 1.32 µM
- selectivity ratio [7]: > 76
- selectivity ratio [8]: 76
- IC50 (Leishmania donovani [9]): 1.46 µM
- selectivity ratio [10]: > 68
- selectivity ratio [11]: > 68
- CC50 at 72 h [12]: 111 µM
- IC50 [13]: > 75.5 µM
- IC50 [14]: > 75.5 µM
- IC50 [15]: > 75.5 µM
- IC50 (Trypanosoma congolense): > 75.5 µM
- IC50 (Trypanosoma evansi): > 75.5 µM
- IC50 (Trypanosoma equiperdum): > 75.5 µM

Compound: C#CCn1cc(/C=N\N=C\C2CCCCC2)c2cc([N+](=O)[O-])ccc21
- IC50 at 48 h [1]: > 100 µM
- IC50 at 72 h [2]: 52.9 µM
- IC50 (Leishmania donovani [3]): > 10 µM
- IC50 (Leishmania donovani [6]): 2.85 µM
- selectivity ratio [7]: > 35
- selectivity ratio [8]: 19
- IC50 (Leishmania donovani [9]): > 10 µM
- CC50 at 72 h [12]: > 297 µM
- IC50 [13]: 16.1 µM
- IC50 [14]: 19.4 µM
- IC50 [15]: 18.6 µM
- IC50 (Trypanosoma congolense): > 74.3 µM
- IC50 (Trypanosoma evansi): > 74.3 µM
- IC50 (Trypanosoma equiperdum): 21.8 µM
- selectivity ratio [16]: > 18.4
- selectivity ratio [17]: > 15.3
- selectivity ratio [18]: > 16
- selectivity ratio [21]: > 13.7

Compound: C#CCn1cc(/C=N\N=C\c2ccc([N+](=O)[O-])cc2)c2cc([N+](=O)[O-])ccc21
- IC50 at 48 h [1]: 27.5 µM
- IC50 at 72 h [2]: 25.7 µM
- IC50 (Leishmania donovani [3]): > 10 µM
- IC50 (Leishmania donovani [6]): 9.75 µM
- selectivity ratio [7]: 3
- selectivity ratio [8]: 3
- IC50 (Leishmania donovani [9]): 3.91 µM
- selectivity ratio [10]: 7
- selectivity ratio [11]: 7
- CC50 at 72 h [12]: > 68.2 µM
- IC50 [13]: > 66.7 µM
- IC50 [14]: > 66.7 µM
- IC50 [15]: > 66.7 µM
- IC50 (Trypanosoma congolense): 8.84 µM
- IC50 (Trypanosoma evansi): > 66.7 µM
- IC50 (Trypanosoma equiperdum): > 66.7 µM
- selectivity ratio [19]: > 30.1

Compound: C#CCn1cc(\C=N/N=C/C(C)=C\C)c2cc([N+](=O)[O-])ccc21
- IC50 at 48 h [1]: 84.2 µM
- IC50 at 72 h [2]: > 100 µM
- IC50 (Leishmania donovani [3]): 10.5 µM
- selectivity ratio [4]: 8
- selectivity ratio [5]: 10
- IC50 (Leishmania donovani [6]): 0.32 µM
- selectivity ratio [7]: 226
- selectivity ratio [8]: 313
- IC50 (Leishmania donovani [9]): 1.7 µM
- selectivity ratio [10]: 50
- selectivity ratio [11]: > 59
- CC50 at 72 h [12]: > 281 µM
- IC50 [13]: > 81.2 µM
- IC50 [14]: > 81.2 µM
- IC50 [15]: > 81.2 µM
- IC50 (Trypanosoma congolense): > 81.2 µM
- IC50 (Trypanosoma evansi): > 81.2 µM
- IC50 (Trypanosoma equiperdum): > 81.2 µM
